The source of these data is US6933315B2, “Derivatives of isoindigo, indigo and indirubin and methods of treating cancer” (priority 2001, dated 2005).

Read-outs that look alike come from different tables or passages of the source.

Data set [1] has as its system PC-3. The experiment in a line: Growth inhibition by MTT, PC-3 prostate cancer cells. It is filed as cell-based, Human. To be noted: read-out: IC50 PC-3. How it is done:
(§1) Growth inhibitory effects of NATURA and other agents on human cancer cells were determined by standard MTT (3-(4,5-dimethylthiazol-2-yl)-2,5-diphenyltetrazolium bromide Test) as described previously. Briefly, cancer cells grown exponentially were aliquoted into 96-well plates at a density of 5000 cells/200 μl per well in RPMI 1640 medium containing 10% FBS overnight. The cells in the plates were then exposed to series of dilution of indicated agent. After 72 h of incubation, 100 μl of the medium was removed from each of the wells and 50 μl of a 1 mg/ml solution of 3-(4,5-dimethylthiazol-2-yl)-2,5-diphenyltetrazolium bromide (MTT) was added to each well and the cells were incubated for additional 4 h. 200 μl of solution of 0.04 N HCl-isopropanol was added to each well to dissolve the black fromazan participates, and absorbance at 540 nm was measured on a 96-Well.

The subject of data set [2] is LNCaP. The experiment in a line: Growth inhibition by MTT, LNCaP prostate cancer cells. The class given is cell-based, Human. To be noted: MTT, 72 h exposure (Table 3), read-out: IC50 LNCaP. How it is done: as §1, with “Briefly, cancer cells grown exponentially were aliquoted into 96-well plates at a density of 5000 cells/200 μl per well in RPMI 1640 medium containing 10% FBS overnight.” left out
(§2) The cells in the plates were then exposed to series of dilution of indicated agent. After 72 h of incubation, 100 μl of the medium was removed from each of the wells and 50 μl of a 1 mg/ml solution of 3-(4,5-dimethylthiazol-2-yl)-2,5-diphenyltetrazolium bromide (MTT) was added to each well and the cells were incubated for additional 4 h. 200 μl of solution of 0.04 N HCl-isopropanol was added to each well to dissolve the black fromazan participates, and absorbance at 540 nm was measured on a 96-Well Microplate Reader. Each experiment was repeated at least three times.

Data set [3] deals with polychromatic erythrocytes from bone marrow. The data set is described as follows: Induction of micronuclei in rodent animals. It is filed as in vivo. As to conditions: mice, 48 mg/kg intraperitoneally daily for 2 days, positive control. How it is done: Cyclophosphamine at dosage of 48 mg/kg was given intraperitoneally daily for 2 days as positive control. Six hrs after the latest administration, the animals were sacrificed, and polychromatic erythrocytes from bone marrow were stained with Giemsa to count micronuclei.

The test system of data set [4] is DU145. The experiment in a line: Growth inhibition by MTT, DU145 prostate cancer cells. To be noted: read-out: IC50 DU145. The class given is cell-based, Human. How it is done: as §1
Data set [5] concerns MCF-7. The data set is described as follows: Growth inhibition by MTT, MCF-7 breast cancer cells. The class given is cell-based, Human. How it is done:
as §1
as §2, with “FIGS. 3-5 show the anticancer affects of NATURA in MCF-7 breast cancer cells, DLD-1 colon cancer cells, and LNCaP hormone-dependent prostate cancer cells. The cancer cells grown exponentially were aliquoted into 96-well plates at a density of 5000 cells/200 μl per well in RPMI 1640 medium containing 10% fetal bovine serum (FBS) overnight. The” for “The”

The subject of data set [6] is SKBR-3. The experiment in a line: Growth inhibition by MTT, SKBR-3 breast cancer cells. The class given is cell-based, Human. To be noted: read-out: IC50 SKBR-3. How it is done: as §1
Data set [7] concerns LOVO. The experiment in a line: Growth inhibition by MTT, LOVO colon cancer cells. It is filed as cell-based, Human. As to conditions: read-out: IC50 LOVO. How it is done:
as §1

Data set [8] relates to DLD-1. The experiment in a line: Growth inhibition by MTT, DLD-1 colon cancer cells. It is filed as cell-based, Human. How it is done:
as §1
as §2, with “FIGS. 3-5 show the anticancer affects of NATURA in MCF-7 breast cancer cells, DLD-1 colon cancer cells, and LNCaP hormone-dependent prostate cancer cells. The cancer cells grown exponentially were aliquoted into 96-well plates at a density of 5000 cells/200 μl per well in RPMI 1640 medium containing 10% fetal bovine serum (FBS) overnight. The” for “The”

Data set [9] deals with Lewis Lung Cancer. The experiment in a line: Anticancer activity in Lewis lung carcinoma animal model. It is filed as in vivo, C57 mice. To be noted: mice, oral, Indirubin 100 × 9, Meisoindigo 106 × 9 mg/kgxd.
Procedure: (§3) Briefly, C57 mice, body weight between 18 to 22 grams, and rat, body weight between 50 to 55 grams, were randomly divided into several groups, ten of each, respectively. Approximately 2×10^6 of Lewis cancer cells or Walker sarcoma cells were transplanted into mice or rat. […] The animals in the control group were given 0.1 ml saline (drug vehicle, negative control) for the same periods of time as treated group. The animals at end of the treatment were sacrificed and tumors were removed and weighed.
Data set [10] has as its system Walker 256. The experiment in a line: Anticancer activity against Walker 256 sarcoma. To be noted: Walker 256, rat, oral; Indirubin 100 × 9, Meisoindigo 106 × 9 mg/kgxd.
Procedure: Anticancer activity against Walker 256: Wistar rats with body weights between 50 to 55 grams, were randomly divided into several groups, ten of each, respectively. Approximately 2×10^6 of the Walker sarcoma cells were transplanted into a Wistar rat. Twenty-four hours after the transplantation, equal molar dosage (0.384 mM/kg) of NATURA or other sugar derivatives were given orally for 10 days. The animals in the control group were given 0.1 ml saline (drug vehicle, negative control) for the same periods of time as treated group. Twenty-four hours after the last administration, the animals were sacrificed and tumors were removed and weighed.
as §3
In order to assess the anticancer activities of NATURA and other sugar derivatives, Wistard rats transplanted with W256 were given the same molar of the tested compounds (0.384 mM/kg) for the same period of time (10 days).
In data set [11] the test system is human cancer cell lines. The experiment in a line: Growth inhibition by MTT, all tested human cancer cell lines. The class given is cell-based. As to conditions: range over breast, colon, prostate lines, three day exposure, read-out: IC50, growth inhibitory effects on all tested human cancer cell lines. How it is done:
as §1

Data set [12] concerns extracellular signal-regulated protein kinase 2 (ERK2). The data set is described as follows: ERK2 activity from treated LNCaP cells. It is filed as cell-based, Human. To be noted: different concentrations, 15 min. How it is done:
Assay for cyclin dependent kinase activity: HUVEC and LNCaP cells were cultured in EMB (endothelial cell basal medium) and RPMI 1640 containing 10% FBS, respectively. The cells grown exponentially were exposed to indicated concentrations of meisoindigo or NATURA for 24 hr. The cells were harvested, washed, and total proteins extracted as described previously. One hundred μg of the proteins were immuno-precipitated using antibodies against cdk2, cdk4/6, PKC, ERK2 or cyclin D1 overnight at 4° C. in the presence of a cocktail of protease inhibitors. […] The phosphorylated histone H1 (represent cdk activity) was measured by scintillation counting or by SDS-polyacrylaimde gel electrophoresis. The direct inhibitory effects of Meisoindigo and NATURA were also measured by reaction of immuno-purified specific enzyme from untreated cells directly with the Meisoindigo or NATURA. […]
LNCaP cells at exponential growth phase were exposed to different concentrations of NATURA (panel A & B) for 24 hrs, or to PD98059 (panel C) for 15 min. […] Upper panels are the imagines of x-ray films from SDS-PAGE, and lower panels represent the densities of each band from the films determined by an Imagine Densitometer from the same films (expressed as the percent of control).

Data set [13] has as its target T1, immuno-purified cdk2 from LNCaP cells (Homo sapiens, UniProt P24941).
T1 construct: Two hundred mg of total protein extracts were immuno-precipitated with cdk2 antibody overnight at 4° C
The experiment in a line: Direct inhibition of immuno-purified cdk2 activity in vitro. It is filed as biochemical. To be noted: 50 μM, immuno-purified cdk2, positive control. How it is done:
Assay for cyclin dependent kinase activity: HUVEC and LNCaP cells were cultured in EMB (endothelial cell basal medium) and RPMI 1640 containing 10% FBS, respectively. The cells grown exponentially were exposed to indicated concentrations of meisoindigo or NATURA for 24 hr. The cells were harvested, washed, and total proteins extracted as described previously. One hundred μg of the proteins were immuno-precipitated using antibodies against cdk2, cdk4/6, PKC, ERK2 or cyclin D1 overnight at 4° C. in the presence of a cocktail of protease inhibitors. The immuno-precipitates were washed 4 times with protein extraction buffer and once with kinase assay buffer, and reacted with 75 μg/ml histone H1 in the presence of [γ-^32P]-ATP (2.5 μCi/10 μM). The phosphorylated histone H1 (represent cdk activity) was measured by scintillation counting or by SDS-polyacrylaimde gel electrophoresis. The direct inhibitory effects of Meisoindigo and NATURA were also measured by reaction of immuno-purified specific enzyme from untreated cells directly with the Meisoindigo or NATURA.
When immuno-purified cdk2 from LNCaP cells was reacted with histone H1 in the presence of different concentrations of NATURA-β and γ-[^32P]-ATP (2.5 μCi/[…]), the enzyme activity was decreased in a concentration-dependent manner.
Two hundred mg of total protein extracts were immuno-precipitated with cdk2 antibody overnight at 4° C. After 4 washes with PBSTDS, and once with kinase assay buffer, the immuno-purified enzyme was then reacted for 10 min with 10 mg of histone H1 in the presence of different concentrations of NATURA or 50 mM of genistein (as a positive control) and γ-[^32P]-ATP (2.5 mCi/10 mM). The phosphorylated histone H1 (reflecting cdk2 activity) was detected either by SDS-PAGE (upper panel), or radioactive scintillation counting (lower panel, after eliminating free γ-[^32P]-ATP).

The mark [14] stands for this setting: Homo sapiens, PC-3, MTT, 72 h exposure.
Setting [15] is: Homo sapiens, DLD-1, 72 h exposure.

In general, IC50 refers to the concentration needed to halve the response being measured. As for `CC(O)(CS(=O)(=O)c1ccc(F)cc1)C(=O)Nc1ccc(C#N)c(C(F)(F)F)c1` (centres unmarked) [Casodex], the IC50 in [1] (setting [14]) came to 120 ± 17.3 µM; in [2] (Homo sapiens, LNCaP), 57.4 ± 7.21 µM.
Molecule `O=P1(N(CCCl)CCCl)NCCCO1` (centres unmarked) [Cyclophosphamine] yielded a micronuclei in data set [3] of 41.16 per thousand.
As to `COc1cccc2c1C(=O)c1c(O)c3c(c(O)c1C2=O)C[C@@](O)(C(C)=O)C[C@@H]3O[C@H]1C[C@H](N)[C@H](O)[C@H](C)O1` [Daunomycin], the IC50 in [1] (Homo sapiens, PC-3, 72 h) came to 0.24 ± 0.018 µM; in [4] (Homo sapiens, DU-145, 72 h) it was 0.107 ± 0.004 µM; in data set [5] (Homo sapiens, MCF7, 72 h exposure), 0.054 ± 0.011 µM; in data set [6] (Homo sapiens, SK-BR-3, 72 h) it was 0.061 ± 0.0051 µM; in [7] (Homo sapiens, LoVo, 72 h), 35 ± 4 nM; in data set [8] (setting [15]), 94 ± 13 nM.
Take `O=C1Nc2ccccc2/C1=C1/Nc2ccccc2C1=O` [Indirubin]: in data set [9], the “Inhibition (%)” value came to 26.3 ± 2.8% and the “Tumor Size X ± SD” value is listed as 2.58 ± 0.21. Besides, in data set [10], the “Inhibition (%)” value was determined as 59.4 ± 2.9% and the “Tumor Size X ± SD” value was found to be 3.94 ± 0.71.
Consider `CS(=O)(=O)Nc1ccc([N+](=O)[O-])cc1OC1CCCCC1` [NS389], for which the concentration for half-maximal inhibition (IC50) in data set [1] (MTT, 72 h exposure) was over 200 µM; in [4] (MTT, 72 h exposure), over 200 µM; in [5] (72 h exposure) it was over 200 µM; in data set [6] (MTT, 72 h exposure), over 200 µM; in data set [7] (MTT, 72 h exposure), over 200000 nM; in data set [2] it was 65.5 ± 9.46 µM. Further, the IC50 in data set [11] was over 200 µM; in data set [8] (72 h exposure), over 200000 nM.
As to `COc1cccc(-c2cc(=O)c3ccccc3o2)c1N` [PD98059], the “effect on ERK2” value in [12] was “concentration-dependent inhibitory effects”.
On to `CC(=O)O[C@H]1C(=O)[C@@]2(C)[C@H]([C@H](OC(=O)c3ccccc3)[C@]3(O)C[C@H](OC(=O)[C@H](O)[C@@H](NC(=O)c4ccccc4)c4ccccc4)C(C)=C1C3(C)C)[C@]1(OC(C)=O)CO[C@@H]1C[C@@H]2O` [Paclitaxel], for which the IC50 in data set [7] (Homo sapiens, LoVo, MTT, 72 h exposure) came out at 3.64 ± 0.51 nM; in [8] (setting [15]), 3.15 ± 0.37 nM.
For the molecule `CC(C)(C)NC(=O)[C@H]1CC[C@H]2[C@@H]3CC[C@H]4NC(=O)C=C[C@]4(C)[C@H]3CC[C@]12C` [Proscar], the concentration for half-maximal inhibition (IC50) in data set [1] (setting [14]) is 134 ± 12.9 µM; in [2] (Homo sapiens, LNCaP), 40.6 ± 7.12 µM.
Take `CC1=C(/C=C/C(C)=C/C=C/C(C)=C/C(=O)O)C(C)(C)CCC1` [Retinoid Acid]: the IC50 is over 50 µM in data set [1] (MTT, 72 h exposure); over 50 µM in [4] (MTT, 72 h exposure); 21.4 ± 3.78 µM in [5] (72 h exposure); over 50 µM in [6] (MTT, 72 h exposure); 75300 ± 12500 nM in data set [7] (MTT, 72 h exposure); 16 ± 3.19 µM in data set [2]. Besides, the IC50 was at least 21.4 µM in data set [11] and 49700 ± 5720 nM in data set [8] (72 h exposure).
A word on the inhibition: it is the change of the read-out against control, counted positive when it falls. With `O=c1c(-c2ccc(O)cc2)coc2cc(O)cc(O)c12` [genistein], the inhibition at 50 µM in data set [13] is about 56%.
